Calls of active or inactive are those of the source. No rule for the calls is given here.

Our source for the mutagenic call values is PubChem BioAssay AID1259407 (Chemical Carcinogenesis Research Information System (CCRIS), 2018).

The test system of the series is CCRIS mutagenicity, Ames/micronucleus/aberration tests. Description: CCRIS mutagenicity studies.
The mark [1] stands for this setting: Test System: AMES SALMONELLA TYPHIMURIUM, Strain/Indicator: TA97, Metabolic Activation: HAMSTER, LIVER, S-9, AROCLOR 1254 (10 OR 30%), Method: PREINCUBATION
Where [2] appears, read: Test System: AMES SALMONELLA TYPHIMURIUM, Strain/Indicator: TA97, Metabolic Activation: NONE, Method: PREINCUBATION
The mark [3] stands for this setting: Test System: AMES SALMONELLA TYPHIMURIUM, Strain/Indicator: TA97, Metabolic Activation: RAT, LIVER, S-9, AROCLOR 1254 (10 OR 30%), Method: PREINCUBATION
[4] abbreviates: Test System: AMES SALMONELLA TYPHIMURIUM, Strain/Indicator: TA98, Metabolic Activation: HAMSTER, LIVER, S-9, AROCLOR 1254 (10 OR 30%), Method: PREINCUBATION
[5] abbreviates: Test System: AMES SALMONELLA TYPHIMURIUM, Strain/Indicator: TA98, Metabolic Activation: NONE, Method: PREINCUBATION
Setting [6] is: Test System: AMES SALMONELLA TYPHIMURIUM, Strain/Indicator: TA98, Metabolic Activation: RAT, LIVER, S-9, AROCLOR 1254 (10 OR 30%), Method: PREINCUBATION
The mark [7] stands for this setting: Test System: AMES SALMONELLA TYPHIMURIUM, Strain/Indicator: TA100, Metabolic Activation: HAMSTER, LIVER, S-9, AROCLOR 1254 (10 OR 30%), Method: PREINCUBATION
The mark [8] stands for this setting: Test System: AMES SALMONELLA TYPHIMURIUM, Strain/Indicator: TA100, Metabolic Activation: NONE, Method: PREINCUBATION
The mark [9] stands for this setting: Test System: AMES SALMONELLA TYPHIMURIUM, Strain/Indicator: TA100, Metabolic Activation: RAT, LIVER, S-9, AROCLOR 1254 (10 OR 30%), Method: PREINCUBATION
The mark [10] stands for this setting: Test System: AMES SALMONELLA TYPHIMURIUM, Strain/Indicator: TA1535, Metabolic Activation: HAMSTER, LIVER, S-9, AROCLOR 1254 (10 OR 30%), Method: PREINCUBATION
[11] abbreviates: Test System: AMES SALMONELLA TYPHIMURIUM, Strain/Indicator: TA1535, Metabolic Activation: NONE, Method: PREINCUBATION
[12] abbreviates: Test System: AMES SALMONELLA TYPHIMURIUM, Strain/Indicator: TA1535, Metabolic Activation: RAT, LIVER, S-9, AROCLOR 1254 (10 OR 30%), Method: PREINCUBATION
The mark [13] stands for this setting: Test System: AMES SALMONELLA TYPHIMURIUM, Strain/Indicator: TA100, Metabolic Activation: NONE, Method: STANDARD PLATE.
[14] abbreviates: Test System: AMES SALMONELLA TYPHIMURIUM, Strain/Indicator: TA98, Metabolic Activation: NONE, Method: STANDARD PLATE.

Consider `CCCCCCC(O)C/C=C\CCCCCCCC(=O)OCC(COC(=O)CCCCCCC/C=C\CC(O)CCCCCC)OC(=O)CCCCCCC/C=C\CC(O)CCCCCC` (stereo not drawn), for which the mutagenic call is, setting by setting: under setting [1], “inactive; negative”; under setting [2], “inactive; negative”; under setting [3], “inactive; negative”; under setting [4], “inactive; negative”; under setting [5], “inactive; negative”; under setting [6], “inactive; negative”. In addition, the mutagenic call reads like this: under setting [7], “inactive; negative”; under setting [8], “inactive; negative”; under setting [9], “inactive; negative”; under setting [10], “inactive; negative”; under setting [11], “inactive; negative”; under setting [12], “inactive; negative”.

For the compound `COc1ccnc(=O)[nH]1`, under setting [13], the mutagenic call is “active; positive”.

For the compound `COc1cccc2c1CC([N+](=O)[O-])c1ccc3c(c1-2)OCO3` (stereo not drawn), the mutagenic call (Test System: AMES SALMONELLA TYPHIMURIUM, Strain/Indicator: D3052, Metabolic Activation: NONE, Method: STANDARD PLATE) was “inactive; negative”; the mutagenic call (Test System: AMES SALMONELLA TYPHIMURIUM, Strain/Indicator: D3052, Metabolic Activation: RAT, LIVER, S-9, PHENOBARBITAL, Method: STANDARD PLATE) is “inactive; negative”; the mutagenic call (Test System: AMES SALMONELLA TYPHIMURIUM, Strain/Indicator: G46, Metabolic Activation: NONE, Method: STANDARD PLATE) is “inactive; negative”; the mutagenic call (Test System: AMES SALMONELLA TYPHIMURIUM, Strain/Indicator: G46, Metabolic Activation: RAT, LIVER, S-9, PHENOBARBITAL, Method: STANDARD PLATE) was “inactive; negative”; the mutagenic call under setting [14] was “active; positive”; the mutagenic call (Test System: AMES SALMONELLA TYPHIMURIUM, Strain/Indicator: TA98, Metabolic Activation: RAT, LIVER, S-9, PHENOBARBITAL, Method: STANDARD PLATE) is “active; positive”. The mutagenic call under setting [13] was “active; positive”; the mutagenic call (Test System: AMES SALMONELLA TYPHIMURIUM, Strain/Indicator: TA100, Metabolic Activation: RAT, LIVER, S-9, PHENOBARBITAL, Method: STANDARD PLATE) is “active; positive”; the mutagenic call (Test System: AMES SALMONELLA TYPHIMURIUM, Strain/Indicator: TA1535, Metabolic Activation: NONE, Method: STANDARD PLATE) was “active; positive”; the mutagenic call (Test System: AMES SALMONELLA TYPHIMURIUM, Strain/Indicator: TA1535, Metabolic Activation: RAT, LIVER, S-9, PHENOBARBITAL, Method: STANDARD PLATE) was “active; positive”; the mutagenic call (Test System: AMES SALMONELLA TYPHIMURIUM, Strain/Indicator: TA1978, Metabolic Activation: NONE, Method: STANDARD PLATE) is “inactive; negative”; the mutagenic call (Test System: AMES SALMONELLA TYPHIMURIUM, Strain/Indicator: TA1978, Metabolic Activation: RAT, LIVER, S-9, PHENOBARBITAL, Method: STANDARD PLATE) is “inactive; negative”.

In the case of `CC(=O)Nc1ccccc1`, the mutagenic call under setting [1] is “inactive; negative”; the mutagenic call under setting [2] was “inactive; negative”; the mutagenic call under setting [3] is “inactive; negative”; the mutagenic call (Test System: AMES SALMONELLA TYPHIMURIUM, Strain/Indicator: TA98, Metabolic Activation: GUINEA PIG, LIVER, S-9, PCB, Method: PREINCUBATION) was “inactive; negative”; the mutagenic call under setting [4] is “inactive; negative”; the mutagenic call (Test System: AMES SALMONELLA TYPHIMURIUM, Strain/Indicator: TA98, Metabolic Activation: HAMSTER, LIVER, S-9, PCB, Method: PREINCUBATION) is “inactive; negative”. In addition, the mutagenic call runs as follows: (Test System: AMES SALMONELLA TYPHIMURIUM, Strain/Indicator: TA98, Metabolic Activation: MOUSE, LIVER, S-9, PCB, Method: PREINCUBATION) “inactive; negative”; under setting [5], “inactive; negative”; under setting [6], “inactive; negative”; (Test System: AMES SALMONELLA TYPHIMURIUM, Strain/Indicator: TA98, Metabolic Activation: RAT, LIVER, S-9, PCB, Method: PREINCUBATION) “inactive; negative”; (Test System: AMES SALMONELLA TYPHIMURIUM, Strain/Indicator: TA100, Metabolic Activation: GUINEA PIG, LIVER, S-9, PCB, Method: PREINCUBATION) “inactive; negative”; under setting [7], “inactive; negative”. For the same compound, the mutagenic call was “inactive; negative” (Test System: AMES SALMONELLA TYPHIMURIUM, Strain/Indicator: TA100, Metabolic Activation: HAMSTER, LIVER, S-9, PCB, Method: PREINCUBATION); “inactive; negative” (Test System: AMES SALMONELLA TYPHIMURIUM, Strain/Indicator: TA100, Metabolic Activation: MOUSE, LIVER, S-9, PCB, Method: PREINCUBATION); “inactive; negative” under setting [8]; “inactive; negative” under setting [9]; “inactive; negative” (Test System: AMES SALMONELLA TYPHIMURIUM, Strain/Indicator: TA100, Metabolic Activation: RAT, LIVER, S-9, PCB, Method: PREINCUBATION); “inactive; negative” under setting [10]. Moreover, the mutagenic call by setting is: under setting [11], “inactive; negative”; under setting [12], “inactive; negative”.

As for `CC(=O)c1ccc(Cl)c(Cl)c1Cl`, the mutagenic call by setting is: (Test System: AMES SALMONELLA TYPHIMURIUM, Strain/Indicator: TA98, Metabolic Activation: HAMSTER, LIVER, S-9, AROCLOR 1254, Method: STANDARD PLATE) “active; positive”; under setting [14], “inactive; negative”; (Test System: AMES SALMONELLA TYPHIMURIUM, Strain/Indicator: TA98, Metabolic Activation: RAT, LIVER, S-9, AROCLOR 1254, Method: STANDARD PLATE) “inactive; negative”; (Test System: AMES SALMONELLA TYPHIMURIUM, Strain/Indicator: TA100, Metabolic Activation: HAMSTER, LIVER, S-9, AROCLOR 1254, Method: STANDARD PLATE) “active; positive”; under setting [13], “inactive; negative”; (Test System: AMES SALMONELLA TYPHIMURIUM, Strain/Indicator: TA100, Metabolic Activation: RAT, LIVER, S-9, AROCLOR 1254, Method: STANDARD PLATE) “active; positive”. Moreover, the mutagenic call reads like this: (Test System: MOUSE LYMPHOMA, Strain/Indicator: L5178Y (TK+/TK-), Metabolic Activation: NONE, Method: SUSPENSION/PLATE) “inactive; negative. reevaluation of results: inconclusive”; (Test System: MOUSE LYMPHOMA, Strain/Indicator: L5178Y (TK+/TK-), Metabolic Activation: RAT, LIVER, S-9, AROCLOR 1254, Method: SUSPENSION/PLATE) “inactive; negative. reevaluation of results: negative”.
